Source: patent US11230526B1, “Cylcoalkenyl derivatives useful as agonists of the GPR120 and/or GPR40 receptors” (Janssen Pharmaceutica NV, priority 2018, dated 2022)
pEC50: −log10 of the molar value.

Experiments:
[1] = target: T1, long form of human GPR120 (Homo sapiens, UniProt Q5NUL3); assay: Human GPR120 DiscoveRx PathHunter Beta-Arrestin assay, Procedure β-arrestin A; assay type: cell-based
T1 construct: host or cells: PathHunter CHO-K1 GPR120 β-Arrestin Cell Line
Description: Human GPR120 DiscoveRx PathHunter® Beta-Arrestin Assay Assay Principle:
The binding of an agonist (medium/long chain fatty acids or small molecule agonists) to the G-protein-coupled receptor GPR120 activates phospholipase C, leading to release of intracellular Ca^+2 through the generation of inositol 1,4,5-trisphosphate (InsP3 or IP3). GPR120 activation can also trigger intracellular signaling via recruitment of Beta-Arrestin. In the present method, agonist-induced activation of the human GPR120 receptor is monitored through the use of PathHunter® CHO-K1 GPR120 Beta-Arrestin Cell Line engineered by DiscoveRx, as detailed below. The cell lines are designed to co-express both the ProLink/Enzyme Donor (PK)-tagged GPCR and the Enzyme […] (EA)-tagged Beta-Arrestin fusion proteins. Upon GPR120 receptor stimulation/activation, the EA-tagged Beta-Arrestin portion is translocated to the tagged receptor, where the two enzyme fragments are brought within close proximity. Under these conditions, these fragments can interact and form an active Beta-gal enzyme complex through Enzyme Fragment Complementation (EFC). This active Beta-gal complex can enzymatically hydrolyse the substrate to produce a detectable light signal; therefore, activation as a function of agonist concentration can be expressed as an EC50 value to determine relative compound activities. This in vitro assay therefore serves to assess compound agonist activity of the GPR120.
In Procedure β-arrestin A, the cell used were PathHunter® CHO-K1 GPR120 β-Arrestin Cell Line, expressing the long form of human GPR120 (Genbank accession number NM_181745), with 3000 cells per well.
The selected CHO-K1 GPR120 β-Arrestin cells were cultured in Ham's F12 media supplemented with 10% fetal bovine serum (FBS), 1% Glutamine, 1×p/s, 800 μg/mL G418 and 300 μg/mL Hygromycin B (for selection). Cell stocks were maintained and grown in a sub-confluent state using standard cell culture procedures. The day before the experiment, the cells were harvested with non-enzymatic cell dissociation buffer and re-suspended in complete growth media at the desired concentration. A Corning 384-plate was then seeded with the proper number of cells in a volume of 25 μL, per well. The seeded plates were incubated overnight at 37° C.
On the day of the experiment, the Assay Buffer containing (a) HBSS with Ca^++ and Mg^++, (b) 20 mM HEPES, and (c) 0.1% BSA stabilizer (pH 7.4) was prepared. The growth medium was gently removed from the cell plates and 20 μL of Assay Buffer added to each well. The plate was then incubated at 37° C. for 60 min. Test compounds were serially diluted in Assay Buffer to desired concentrations (more particularly to one or more of the following μM concentrations: 25, 12.5, 6.25, 3.12, 1.56, 0.78, 0.39, 0.19, 0.10, 0.05, 0.02, 0.01). Five μL of compound dilution was then added to each well and the plate incubated at 37° C. for 90 min. The detection reagents were prepared according to the manufacture's instruction. Twelve μL of the detection reagents were added to each well and the plate incubated at room temperature for 60 min.
The plates were read on an EnVision instrument, using Protocol name: Luminescence, Plate type: 384 Costar, Measurement height: 3 mm, Measurement time: 1 s, Aperture: 384 Plate aperture. The % Activity relative to the positive control was calculated using the following equation:
The % Activity values were plotted versus the concentration of test compound and fitted to a sigmoidal dose-response curve with a Hill slope=1 (fixed value) using nonlinear regression with GraphPad Prism 5.0 to calculate the EC50 values. The Fitting Equation was: Y=Bottom+(Top-Bottom)/(1+10^((Log EC50−X)*HillSlope)), where X is the log of the concentration and Y is the response.

Human GPR120 short form = target: T2, Human GPR120 short form (Homo sapiens, UniProt Q5NUL3); assay: Human GPR120 calcium flux assay, Procedure Calcium B (4200 cells/well); assay type: cell-based
T2 construct: expressed in transfected cells
T2 sequence (Q5NUL3 1-361): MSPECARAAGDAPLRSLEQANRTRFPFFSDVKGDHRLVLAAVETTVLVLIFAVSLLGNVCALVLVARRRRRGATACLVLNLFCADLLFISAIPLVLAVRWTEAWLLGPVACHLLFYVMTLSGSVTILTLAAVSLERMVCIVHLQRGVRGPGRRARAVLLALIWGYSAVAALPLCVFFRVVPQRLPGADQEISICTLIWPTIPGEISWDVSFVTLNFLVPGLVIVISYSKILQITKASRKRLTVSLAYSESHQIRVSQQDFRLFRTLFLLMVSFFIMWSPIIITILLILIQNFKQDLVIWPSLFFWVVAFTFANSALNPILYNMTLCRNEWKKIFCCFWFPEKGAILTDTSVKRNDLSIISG
How it was run: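 HEK293 cells stably expressing human GPR120 (NM_001195755.1), 4200 cells/well, starved 1 h and loaded with Fluo-4 NW plus probenecid. Ligand-evoked calcium flux read on FLIPR for 300 s after a 10 s baseline. RFU = Fmax−Fmin; EC50 from four-parameter concentration-response fit.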

T1 sequence (Q5NUL3 1-377 isoform Q5NUL3-1): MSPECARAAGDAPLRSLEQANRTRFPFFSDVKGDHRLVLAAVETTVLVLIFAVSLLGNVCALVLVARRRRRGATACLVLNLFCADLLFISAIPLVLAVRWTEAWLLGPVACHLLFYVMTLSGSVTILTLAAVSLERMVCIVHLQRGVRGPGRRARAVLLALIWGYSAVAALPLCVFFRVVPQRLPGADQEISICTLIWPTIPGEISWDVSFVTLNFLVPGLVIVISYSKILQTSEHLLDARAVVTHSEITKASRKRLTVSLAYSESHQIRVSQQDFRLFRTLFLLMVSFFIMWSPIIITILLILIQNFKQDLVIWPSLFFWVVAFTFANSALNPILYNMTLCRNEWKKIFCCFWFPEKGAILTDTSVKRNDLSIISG
T1 sequence (P32121 whole entry partner): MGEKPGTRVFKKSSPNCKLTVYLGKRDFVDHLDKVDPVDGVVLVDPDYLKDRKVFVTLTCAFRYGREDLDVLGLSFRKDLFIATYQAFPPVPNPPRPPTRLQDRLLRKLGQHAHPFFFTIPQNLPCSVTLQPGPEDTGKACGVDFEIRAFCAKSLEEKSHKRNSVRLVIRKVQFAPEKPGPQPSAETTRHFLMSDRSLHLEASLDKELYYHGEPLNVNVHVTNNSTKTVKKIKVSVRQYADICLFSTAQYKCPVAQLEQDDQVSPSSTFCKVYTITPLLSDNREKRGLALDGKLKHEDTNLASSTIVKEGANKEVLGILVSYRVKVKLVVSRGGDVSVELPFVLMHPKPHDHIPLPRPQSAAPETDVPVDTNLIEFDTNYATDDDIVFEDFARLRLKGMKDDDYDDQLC

SMILES | pEC50 [1] | pEC50 (Human GPR120 short form)
Cc1ccc(C2=C(COc3ccc(CCC(=O)O)cc3Br)CCC2)cc1 [Compound 169, 3-[3-bromo-4-[[2-(p-tolyl)cyclopenten-1-yl]methoxy]phenyl]Propanoic Acid] | 7.46 | 7.31
Cc1c(CCC(=O)O)ccc(OCC2=C(c3ccc(Cl)c(F)c3)CC(F)(F)C2)c1C [Compound 171, 3-[4-[[2-(4-chloro-3-fluoro-phenyl)-4,4-difluoro-cyclopenten-1-yl]methoxy]-2,3-dimethyl-phenyl]Propanoic Acid] | 6.68 | 6.97
Cc1c(CCC(=O)O)ccc(OCC2=C(c3ccc(F)c(F)c3)CC(F)(F)C2)c1C [Compound 177, 3-[4-[[2-(3,4-difluorophenyl)-4,4-difluoro-cyclopenten-1-yl]methoxy]-2,3-dimethyl-phenyl]Propanoic Acid] | 7.14 | 7.28
COC1CC(COc2ccc(CCC(=O)O)c(C)c2C)=C(c2ccc(Cl)cc2)C1 (stereo not shown) [Compound 189, 3-[4-[[2-(4-chlorophenyl)-4-methoxy-cyclopenten-1-yl]methoxy]-2,3-dimethyl-phenyl]Propanoic Acid] | 6.61 | 7.20
Cc1cc(CCC(=O)O)ccc1OCC1=C(c2cncs2)CC(F)(F)C1 [Compound 190, 3-[4-[(4,4-difluoro-2-thiazol-5-yl-cyclopenten-1-yl)methoxy]-3-methyl-phenyl]Propanoic Acid] | 5.98 | 6.35
Cc1c(CCC(=O)O)ccc(OCC2=C(c3cccc(F)c3)CC(F)(F)C2)c1C [Compound 192, 3-[4-[[4,4-difluoro-2-(3-fluorophenyl)cyclopenten-1-yl]methoxy]-2,3-dimethyl-phenyl]Propanoic Acid] | 6.49 | 7.21
Cc1c(CCC(=O)O)ccc(OCC2=C(c3ccccc3)CC(F)(F)C2)c1C [Compound 194, 3-[4-[(4,4-difluoro-2-phenyl-cyclopenten-1-yl)methoxy]-2,3-dimethyl-phenyl]Propanoic Acid] | 6.79 | 7.44
Cc1c(CCC(=O)O)ccc(OCC2=C(c3ccc(Cl)cc3)CC(Cl)C2)c1C (stereo not shown) [Compound 195, 3-[4-[[4-chloro-2-(4-chlorophenyl)cyclopenten-1-yl]methoxy]-2,3-dimethyl-phenyl]Propanoic Acid] | 6.33 | 6.64
Cc1c(CCC(=O)O)ccc(OCC2=C(c3ccc(Cl)cc3)CC(C#N)C2)c1C (stereo not shown) [Compound 196, 3-[4-[[2-(4-chlorophenyl)-4-cyano-cyclopenten-1-yl]methoxy]-2,3-dimethyl-phenyl]Propanoic Acid] | 6.00 | 6.13
Cc1c(CCC(=O)O)ccc(OCC2=C(c3cccs3)CC(F)(F)C2)c1C [Compound 200, 3-[4-[[4,4-difluoro-2-(2-thienyl)cyclopenten-1-yl]methoxy]-2,3-dimethyl-phenyl]Propanoic Acid] | 6.36 | 6.74
O=C(O)CCc1cc(F)c(OCC2=C(c3cccs3)CC(F)(F)C2)c(F)c1 [Compound 201, 3-[4-[[4,4-difluoro-2-(2-thienyl)cyclopenten-1-yl]methoxy]-3,5-difluoro-phenyl]Propanoic Acid] | 6.39 | 6.10
Cc1cc(CCC(=O)O)ccc1OCC1=C(c2cccs2)CC(F)(F)C1 [Compound 202, 3-[4-[[4,4-difluoro-2-(2-thienyl)cyclopenten-1-yl]methoxy]-3-methyl-phenyl]Propanoic Acid] | 6.52 | 6.94

Continued, values first:

pEC50 [1] | pEC50 (Human GPR120 short form) | SMILES
5.42 | 6.06 | Cc1c(CCC(=O)O)ccc(OCC2=C(c3ccc(Cl)c(F)c3)CCC(F)(F)C2)c1C [Compound 526, 3-[4-[[2-(4-chloro-3-fluoro-phenyl)-5,5-difluoro-cyclohexen-1-yl]methoxy]-2,3-dimethyl-phenyl]Propanoic Acid]
6.30 | 6.05 | Cc1cc(CCC(=O)O)ccc1OCC1=C(c2ccc(Cl)c(F)c2)CCC(F)(F)C1 [Compound 527, 3-[4-[[2-(4-chloro-3-fluoro-phenyl)-5,5-difluoro-cyclohexen-1-yl]methoxy]-3-methyl-phenyl]Propanoic Acid]
6.54 | 6.93 | Cc1c(CCC(=O)O)ccc(OCC2=C(c3ccc(F)c(F)c3)CCC(F)(F)C2)c1C [Compound 531, 3-[4-[[2-(3,4-difluorophenyl)-5,5-difluoro-cyclohexen-1-yl]methoxy]-2,3-dimethyl-phenyl]Propanoic Acid]
6.80 | 7.05 | Cc1cc(CCC(=O)O)ccc1OCC1=C(c2ccccc2)CCC(F)(F)C1 [Compound 538, 3-[4-[(5,5-difluoro-2-phenyl-cyclohexen-1-yl)methoxy]-3-methyl-phenyl]Propanoic Acid]
6.65 | 6.82 | COC1CCC(c2ccc(Cl)cc2)=C(COc2ccc(CCC(=O)O)c(C)c2C)C1 (stereo not shown) [Compound 540, 3-[4-[[2-(4-chlorophenyl)-5-methoxy-cyclohexen-1-yl]methoxy]-2,3-dimethyl-phenyl]Propanoic Acid]
5.78 | 6.01 | Cc1c(CCC(=O)O)ccc(OCC2=C(c3cnn(C)c3)CCC(F)(F)C2)c1C [Compound 545, 3-[4-[[5,5-difluoro-2-(1-methylpyrazol-4-yl)cyclohexen-1-yl]methoxy]-2,3-dimethyl-phenyl]Propanoic Acid]
5.74 | 6.41 | Cc1c(CCC(=O)O)ccc(OCC2=C(c3cncs3)CCC(F)(F)C2)c1C [Compound 547, 3-[4-[(5,5-difluoro-2-thiazol-5-yl-cyclohexen-1-yl)methoxy]-2,3-dimethyl-phenyl]Propanoic Acid]
6.32 | 6.81 | Cc1c(CCC(=O)O)ccc(OCC2=C(c3ccco3)CCC(F)(F)C2)c1C [Compound 552, 3-[4-[[5,5-difluoro-2-(2-furyl)cyclohexen-1-yl]methoxy]-2,3-dimethyl-phenyl]Propanoic Acid]
5.99 | 6.14 | Cc1ncc(C2=C(COc3c(F)cc(CCC(=O)O)cc3F)CC(F)(F)CC2)s1 [Compound 554, 3-[4-[[5,5-difluoro-2-(2-methylthiazol-5-yl)cyclohexen-1-yl]methoxy]-3,5-difluoro-phenyl]Propanoic Acid]
6.45 | 6.79 | Cc1cc(CCC(=O)O)ccc1OCC1=C(c2ccco2)CCC(F)(F)C1 [Compound 555, 3-[4-[[5,5-difluoro-2-(2-furyl)cyclohexen-1-yl]methoxy]-3-methyl-phenyl]Propanoic Acid]
6.52 | 6.83 | Cc1c(CCC(=O)O)ccc(OCC2=C(c3cccs3)CCC(F)(F)C2)c1C [Compound 557, 3-[4-[[5,5-difluoro-2-(2-thienyl)cyclohexen-1-yl]methoxy]-2,3-dimethyl-phenyl]Propanoic Acid]
